In ChEMBL document CHEMBL1146127, “Aminobenzisoxazoles with biaryl P4 moieties as potent, selective, and orally bioavailable factor Xa inhibitors” (Bioorg Med Chem Lett, 2006):

Tests used:
in vivo [1] = conditions: dog, iv, 0.4 mg/kg
in vivo [2] = conditions: dog, iv, 0.4 mg/kg; remark: listed apart in the source
in vivo [3] = conditions: dog
in vivo [4] = conditions: dog, po, 0.2 mg/kg

Vd (in vivo [1]): 23 L/kg | clearance (in vivo [2]): 28.3 mL/min/kg | half-life (in vivo [3]): 10 h | bioavailability (in vivo [4]): 64%
Compound: Nc1noc2ccc(-n3nc(C(F)(F)F)cc3C(=O)Nc3ccc(-c4ccccc4CN4CCCC4)cc3F)cc12
